In ChEMBL document CHEMBL1127924, “Synthesis and structure - anti-tumor-promoting activity relationship of monogalactosyl diacylglycerols” (1994):

What was measured:
Human gammaherpesvirus 4 [1] = test: Inhibitory activity against TPA-induced Epstein-Barr virus early antigen (EBV-EA) activation at a concentration of 1000 mol ratio/TPA; assay type: functional
Human gammaherpesvirus 4 [2] = test: Inhibitory activity against TPA-induced Epstein-Barr virus early antigen (EBV-EA) activation at a concentration of 100 mol ratio/TPA; values are per cent of control
Human gammaherpesvirus 4 [3] = test: Inhibitory activity against TPA-induced Epstein-Barr virus early antigen (EBV-EA) activation at a concentration of 10 mol ratio/TPA; values are per cent of control
Human gammaherpesvirus 4 [4] = test: Inhibitory activity against TPA-induced Epstein-Barr virus early antigen (EBV-EA) activation at a concentration of 500 mol ratio/TPA; assay type: functional; set-up: scale not given: the % may be the effect or the level left

CCCCC/C=C/C/C=C/CCCCCCCC(=O)O[C@H](COC(=O)CCCCCCCCCCCCC)CO[C@@H]1O[C@H](CO)[C@H](O)[C@H](O)[C@H]1O
EBV-EA activation (% of control) (Human gammaherpesvirus 4 [1]): 17.1% | EBV-EA activation (% of control) (Human gammaherpesvirus 4 [2]): 88.2% | EBV-EA activation (% of control) (Human gammaherpesvirus 4 [3]): 100% | Control (Human gammaherpesvirus 4 [4]): 39.6%

CCCCCCCCCCCCCC(=O)OC[C@H](CO[C@@H]1O[C@H](CO)[C@H](O)[C@H](O)[C@H]1O)OC(=O)CCCCCCCCCCCCC
EBV-EA activation (% of control) (Human gammaherpesvirus 4 [1]): 0% | EBV-EA activation (% of control) (Human gammaherpesvirus 4 [2]): 88.2% | EBV-EA activation (% of control) (Human gammaherpesvirus 4 [3]): 100% | Control (Human gammaherpesvirus 4 [4]): 15.4%

CCCCCCCCC/C=C/C=C/C=C/C=C/C=C/C=C/C(=O)OC[C@H](CO[C@@H]1O[C@H](CO)[C@H](O)[C@H](O)[C@H]1O)OC(=O)CCCCCCCCCCCCC
EBV-EA activation (% of control) (Human gammaherpesvirus 4 [1]): 13.8% | EBV-EA activation (% of control) (Human gammaherpesvirus 4 [2]): 68.9% | EBV-EA activation (% of control) (Human gammaherpesvirus 4 [3]): 100% | Control (Human gammaherpesvirus 4 [4]): 29.7%

CCCCCCCCC/C=C/C=C/C=C/C=C/C=C/C(=O)OC[C@H](CO[C@@H]1O[C@H](CO)[C@H](O)[C@H](O)[C@H]1O)OC(=O)/C=C/C=C/C=C/C=C/C=C/CCCCCCCCC
EBV-EA activation (% of control) (Human gammaherpesvirus 4 [1]): 0% | EBV-EA activation (% of control) (Human gammaherpesvirus 4 [2]): 89% | EBV-EA activation (% of control) (Human gammaherpesvirus 4 [3]): 100% | Control (Human gammaherpesvirus 4 [4]): 54.3%

CCCCCCCC/C=C/CCCCCCCC(=O)OC[C@H](CO[C@@H]1O[C@H](CO)[C@H](O)[C@H](O)[C@H]1O)OC(=O)/C=C/C=C/C=C/C=C/C=C/CCCCCCCCC
EBV-EA activation (% of control) (Human gammaherpesvirus 4 [1]): 0% | EBV-EA activation (% of control) (Human gammaherpesvirus 4 [2]): 53.6% | EBV-EA activation (% of control) (Human gammaherpesvirus 4 [3]): 81.7% | Control (Human gammaherpesvirus 4 [4]): 0%

CCCCC/C=C/C/C=C/CCCCCCCC(=O)O[C@H](COC(=O)CCCCCCC/C=C/CCCCCC)CO[C@@H]1O[C@H](CO)[C@H](O)[C@H](O)[C@H]1O
EBV-EA activation (% of control) (Human gammaherpesvirus 4 [1]): 53.3% | EBV-EA activation (% of control) (Human gammaherpesvirus 4 [2]): 100% | EBV-EA activation (% of control) (Human gammaherpesvirus 4 [3]): 100% | Control (Human gammaherpesvirus 4 [4]): 74.6%

CCCCCCCC/C=C/CCCCCCCC(=O)OC[C@H](CO[C@@H]1O[C@H](CO)[C@H](O)[C@H](O)[C@H]1O)OC(=O)/C=C/C=C/C=C/C=C/C=C/C=C/CCCCCCCCC
EBV-EA activation (% of control) (Human gammaherpesvirus 4 [1]): 0% | EBV-EA activation (% of control) (Human gammaherpesvirus 4 [2]): 68.1% | EBV-EA activation (% of control) (Human gammaherpesvirus 4 [3]): 88.4% | Control (Human gammaherpesvirus 4 [4]): 26.4%

CCCCCCCCC/C=C/C=C/C=C/C=C/C=C/C(=O)O[C@H](COC(=O)CCCCCCCCCCCCC)CO[C@@H]1O[C@H](CO)[C@H](O)[C@H](O)[C@H]1O
EBV-EA activation (% of control) (Human gammaherpesvirus 4 [1]): 15.8% | EBV-EA activation (% of control) (Human gammaherpesvirus 4 [2]): 72.8% | EBV-EA activation (% of control) (Human gammaherpesvirus 4 [3]): 90.7% | Control (Human gammaherpesvirus 4 [4]): 30.6%

CC/C=C/C/C=C/C/C=C/CCCCCCCC(=O)O[C@H](COC(=O)CCCCCCC/C=C/C/C=C/CCCCC)CO[C@@H]1O[C@H](CO)[C@H](O)[C@H](O)[C@H]1O
EBV-EA activation (% of control) (Human gammaherpesvirus 4 [1]): 8.7% | EBV-EA activation (% of control) (Human gammaherpesvirus 4 [2]): 64.5% | EBV-EA activation (% of control) (Human gammaherpesvirus 4 [3]): 84.9% | Control (Human gammaherpesvirus 4 [4]): 22.2%

CC/C=C/C/C=C/C/C=C/CCCCCCCC(=O)O[C@H](COC(=O)CCCCCCCCCCCCCCC)CO[C@@H]1O[C@H](CO)[C@H](O)[C@H](O)[C@H]1O
EBV-EA activation (% of control) (Human gammaherpesvirus 4 [1]): 19.4% | EBV-EA activation (% of control) (Human gammaherpesvirus 4 [2]): 92.6% | EBV-EA activation (% of control) (Human gammaherpesvirus 4 [3]): 100% | Control (Human gammaherpesvirus 4 [4]): 57.6%

CCCCCCCCCCCCCC(=O)OC[C@@H](CO[C@@H]1O[C@H](CO)[C@H](O)[C@H](O)[C@H]1O)OC(C)=O
EBV-EA activation (% of control) (Human gammaherpesvirus 4 [1]): 17.4% | EBV-EA activation (% of control) (Human gammaherpesvirus 4 [2]): 52.9% | EBV-EA activation (% of control) (Human gammaherpesvirus 4 [3]): 77.4% | Control (Human gammaherpesvirus 4 [4]): 36.8%

CCC=CCC=CCC=CCCCCCCCC(=O)O[C@@H](COC(=O)CCCCCCCCCCCCC)CO[C@@H]1O[C@H](CO)[C@H](O)[C@H](O)[C@H]1O
EBV-EA activation (% of control) (Human gammaherpesvirus 4 [1]): 0% | EBV-EA activation (% of control) (Human gammaherpesvirus 4 [2]): 73.9% | EBV-EA activation (% of control) (Human gammaherpesvirus 4 [3]): 100% | Control (Human gammaherpesvirus 4 [4]): 20.2%

CCCCCCCCC/C=C/C=C/C=C/C=C/C=C/C(=O)O[C@@H](COC(=O)CCCCCCCCCCCCC)CO[C@@H]1O[C@H](CO)[C@H](O)[C@H](O)[C@H]1O
EBV-EA activation (% of control) (Human gammaherpesvirus 4 [1]): 26.1% | EBV-EA activation (% of control) (Human gammaherpesvirus 4 [2]): 84.1% | EBV-EA activation (% of control) (Human gammaherpesvirus 4 [3]): 100% | Control (Human gammaherpesvirus 4 [4]): 52.8%

CCCCCCCC/C=C/CCCCCCCC(=O)O[C@H](COC(=O)C=C/C=C/C=C/C=C/C=C/C=C/CCCCCCCCC)CO[C@@H]1O[C@H](CO)[C@H](O)[C@H](O)[C@H]1O
EBV-EA activation (% of control) (Human gammaherpesvirus 4 [1]): 0% | EBV-EA activation (% of control) (Human gammaherpesvirus 4 [2]): 62.9% | EBV-EA activation (% of control) (Human gammaherpesvirus 4 [3]): 83.2% | Control (Human gammaherpesvirus 4 [4]): 12.8%

CCCCCCCC/C=C/CCCCCCCC(=O)O[C@H](COC(=O)CCCCCCCCCCCCC)CO[C@@H]1O[C@H](CO)[C@H](O)[C@H](O)[C@H]1O
EBV-EA activation (% of control) (Human gammaherpesvirus 4 [1]): 0% | EBV-EA activation (% of control) (Human gammaherpesvirus 4 [2]): 80.4% | EBV-EA activation (% of control) (Human gammaherpesvirus 4 [3]): 100% | Control (Human gammaherpesvirus 4 [4]): 16.9%

CCCCCCCCC/C=C/C=C/C=C/C=C/C=C/C=C/C(=O)OC[C@H](CO[C@@H]1O[C@H](CO)[C@H](O)[C@H](O)[C@H]1O)OC(=O)/C=C/C=C/C=C/C=C/C=C/C=C/CCCCCCCCC
EBV-EA activation (% of control) (Human gammaherpesvirus 4 [1]): 0% | EBV-EA activation (% of control) (Human gammaherpesvirus 4 [2]): 64.8% | EBV-EA activation (% of control) (Human gammaherpesvirus 4 [3]): 86.8% | Control (Human gammaherpesvirus 4 [4]): 26.3%

OC[C@@H](O)CO[C@@H]1O[C@H](CO)[C@H](O)[C@H](O)[C@H]1O
EBV-EA activation (% of control) (Human gammaherpesvirus 4 [1]): 0% | EBV-EA activation (% of control) (Human gammaherpesvirus 4 [2]): 66.7% | EBV-EA activation (% of control) (Human gammaherpesvirus 4 [3]): 100% | Control (Human gammaherpesvirus 4 [4]): 15.8%

CCCCCCCC/C=C/CCCCCCCC(=O)OCC(O)CO[C@@H]1O[C@H](CO)[C@H](O)[C@H](O)[C@H]1O (single isomer, unassigned)
EBV-EA activation (% of control) (Human gammaherpesvirus 4 [1]): 0% | EBV-EA activation (% of control) (Human gammaherpesvirus 4 [2]): 84.7% | EBV-EA activation (% of control) (Human gammaherpesvirus 4 [3]): 100% | Control (Human gammaherpesvirus 4 [4]): 0%

CCCCCCCCCCCCCC(=O)OCC(O)CO[C@@H]1O[C@H](CO)[C@H](O)[C@H](O)[C@H]1O (single isomer, unassigned)
EBV-EA activation (% of control) (Human gammaherpesvirus 4 [1]): 0% | EBV-EA activation (% of control) (Human gammaherpesvirus 4 [2]): 65.3% | EBV-EA activation (% of control) (Human gammaherpesvirus 4 [3]): 90.7% | Control (Human gammaherpesvirus 4 [4]): 22.5%

CCCCC/C=C/C/C=C/CCCCCCCC(=O)OCC(O)CO[C@@H]1O[C@H](CO)[C@H](O)[C@H](O)[C@H]1O (single isomer, unassigned)
EBV-EA activation (% of control) (Human gammaherpesvirus 4 [1]): 0% | EBV-EA activation (% of control) (Human gammaherpesvirus 4 [2]): 79.8% | EBV-EA activation (% of control) (Human gammaherpesvirus 4 [3]): 100% | Control (Human gammaherpesvirus 4 [4]): 24.1%

CCCCCCCC/C=C/CCCCCCCC(=O)OCC(CO[C@@H]1O[C@H](CO)[C@H](O)[C@H](O)[C@H]1O)OC(=O)CCCCCCC/C=C/CCCCCCCC (single isomer, unassigned)
EBV-EA activation (% of control) (Human gammaherpesvirus 4 [1]): 0% | EBV-EA activation (% of control) (Human gammaherpesvirus 4 [2]): 21.3% | EBV-EA activation (% of control) (Human gammaherpesvirus 4 [3]): 61% | Control (Human gammaherpesvirus 4 [4]): 11%

CCCCCCCCCC=CC=CC=CC=CC=CC=CC(=O)OC(COC(=O)CCCCCCCCCCCCC)CO[C@@H]1O[C@H](CO)[C@H](O)[C@H](O)[C@H]1O (single isomer, unassigned)
EBV-EA activation (% of control) (Human gammaherpesvirus 4 [1]): 0% | EBV-EA activation (% of control) (Human gammaherpesvirus 4 [2]): 88.3% | EBV-EA activation (% of control) (Human gammaherpesvirus 4 [3]): 100% | Control (Human gammaherpesvirus 4 [4]): 64.7%

CCCCCCCCC=CCCCCCCCC(=O)OC(COC(=O)C=CC=CC=CC=CC=CCCCCCCCCC)CO[C@@H]1O[C@H](CO)[C@H](O)[C@H](O)[C@H]1O (single isomer, unassigned)
EBV-EA activation (% of control) (Human gammaherpesvirus 4 [1]): 0% | EBV-EA activation (% of control) (Human gammaherpesvirus 4 [2]): 69.6% | EBV-EA activation (% of control) (Human gammaherpesvirus 4 [3]): 93.2% | Control (Human gammaherpesvirus 4 [4]): 18.5%
